# Measurements reported in patent US20240336573A1, “COMPOUND FOR THE TREATMENT AND PROPHYLAXIS OF INFECTIOUS DISEASES” (Eberhard Karls Universität Tübingen Medizinische Fakultät, priority 2021, published 2024).
# How the values were obtained:
# SurA = SurA (Escherichia coli, UniProt P0ABZ6); assay: Luciferase-based SurA activity assay (primary assay, in-house); type: biochemical, E. coli; conditions: n/d: no signal detected; for Primary Assay ICmax: QHL-10 derivatives, dose response up to 125 μM; for Primary Assay Amplitude: amplitude of signal
# Description: The biological function of SurA is to bind and to keep outer membrane proteins that have reached the periplasm in an unfolded but folding-competent state. The inventors' assay is based on this interaction and uses firefly Luciferase (fLuc) as a non-native substrate. […] This is exploited in the assay (FIG. 3). The loss of tertiary structure of fLuc leads to the exposure of binding sites for SurA. It is known that SurA binds selectively to a special group of substrates. These substrates have in common the specific patterns of hydrophobic amino acids that are highly enriched in the beta strands of integral outer membrane proteins. These motifs are present in OMPs of all Gram-negative bacteria and in fLuc as well. Upon mild heat treatment of fLuc and its subsequent partial unfolding, fLuc is accepted as a substrate by SurA. Of note, these intermediates served as reporter substrates to determine the activity of a […] folding chaperone. […] This interaction remains stable upon temperature reduction. Next, the temperature of the assay is reduced to room temperature and luciferase activity is subsequently measured by addition of Luciferin and ATP. In conditions without SurA, fLuc will refold into its active conformation resulting in a luminescence signal.
# In short, the Luciferase based SurA activity assay was performed in SurA Activity Assay Buffer (40 mM HEPES pH 7.4, 20 mM MgSO4, 0.5 g/I BSA). SurA aliquots were thawn at RT, activated by mild heat treatment and cooled down to RT for 10 min. […] Solution A containing 10 mM ATP as well as 0.3 mM Luciferin (Promega Beetle Luciferin, Potassium Salt) in water was prepared. Luciferase working solution was prepared by diluting 1 ml Luciferase working stock (100 nM) with 9 ml assay buffer. 33 μl of the protein solution were added to every 2nd row of a well of a 384-well PS, white, flat bottom plate. […] Subsequently, 2 μl of compound in DMSO were added in quadruplicates (4 wells each of protein solution and buffer controls). These compound solutions could contain either various compounds or different dilutions of the same compound allowing screening inhibitor activity in a dose dependent manner. After compound addition, plates were incubated 15 min at RT. After this incubation, 5 μl of Luciferase working solution were added to each well. Next, the plates were incubated 25 min at 38° C. to partially unfold the Luciferase. Subsequently, the assay plate was cooled for 5 min at 4° C. followed by 10 min incubation at RT prior to luminescence measurement. Luminescence was measured in a TECAN infinite M200 pro plate reader for each well individually after injection of 10 μl Solution A.
# E. coli JW2496-3 = assay: Sensitizer MIC assay (vancomycin); type: cell-based; conditions: 100 μM compound, more susceptible strain
# Method: (§1) To test for the sensitizer properties of the compounds, the inventors then performed a sensitizer MIC assay. To this end, E. coli BW25113, E. coli JW2496-3, and E. coli ATCC 25922 inocula were prepared as described above. Each well of a 96-well plate was prefilled with a fixed compound concentration of 100 μM and a dilution series of Vancomycin ranging from […]. A sensitizing effect was defined as reduction of the MIC value of Vancomycin of the respective test strain.
# E. coli ATCC 25922 = assay: Sensitizer MIC assay (vancomycin); type: cell-based; conditions: vancomycin; 100 μM compound; type strain
# Method: as §1
# E. coli BW25113 = assay: Sensitizer MIC assay (vancomycin); type: cell-based; conditions: 100 μM compound, wildtype strain
# Method: as §1
# [1] = test system: E. coli BW25113, E. coli JW2496-3, E. coli ATCC 25922; assay: Minimal inhibitory concentration assay (bactericidal/bacteriostatic assessment); type: cell-based; conditions: dilution series 100-1.7 μM
# Description: The intended effect of a SurA inhibitor should be the induction of a disturbance of the outer membrane composition resulting in an increased susceptibility to antibiotic treatment. Of note, Vancomycin is typically not used to treat infections with Gram-negative bacteria, because it is excluded by the OM and not efficient at concentrations that could be achieved in patients. However, at appropriate dosing in vitro it can be used to detect outer membrane defects. For determining a potential sensitizing effect of Vancomycin treatment, the inventors first tested whether the compounds at hand were bactericidal per se. Therefore, the inventors performed a minimal inhibitory concentration (MIC) assay. To this end, 5 ml overnight cultures of E. coli BW25113 (Keio-Collection reference strain), E. coli JW2496-3 (Keio-Collection single gene knockout for bamB, which suffers from decreased outer membrane integrity) and E. coli ATCC 25922 (a reference strain recommended for antibiotic susceptibility testing) were grown in Mueller Hinton Broth, Cation adjusted (MHB-II). The next day, the OD was adjusted to obtain 1*10^8 CFU/ml using fresh MHB-II. Next, this bacterial solution was diluted 1:100 into 20 ml fresh MHB-II. 50 μl of this bacteria solution were then transferred into each well of a 96-well plate prefilled with 50 μl MHB-II supplemented with the desired compounds. The test plates for the bactericidal assessment contained dilution series of the compounds from 100-1.7 μM. Plates were sealed with a gas permeable membrane and incubated o/n at 37° C. in a humid chamber without shaking. After o/n incubation, bacterial growth was quantified by measuring the optical density at 600 nm wavelength in a multiplate reader. Compounds showing no growth inhibition at 100 μM were considered non-bactericidal. Of note, the bactericidal effect of Vancomycin was assessed similarly for each test strain using Vancomycin concentrations ranging from […]. This was done to identify a Vancomycin concentration at which the strains just managed to survive.
# Chain of SurA (P0ABZ6 21-428): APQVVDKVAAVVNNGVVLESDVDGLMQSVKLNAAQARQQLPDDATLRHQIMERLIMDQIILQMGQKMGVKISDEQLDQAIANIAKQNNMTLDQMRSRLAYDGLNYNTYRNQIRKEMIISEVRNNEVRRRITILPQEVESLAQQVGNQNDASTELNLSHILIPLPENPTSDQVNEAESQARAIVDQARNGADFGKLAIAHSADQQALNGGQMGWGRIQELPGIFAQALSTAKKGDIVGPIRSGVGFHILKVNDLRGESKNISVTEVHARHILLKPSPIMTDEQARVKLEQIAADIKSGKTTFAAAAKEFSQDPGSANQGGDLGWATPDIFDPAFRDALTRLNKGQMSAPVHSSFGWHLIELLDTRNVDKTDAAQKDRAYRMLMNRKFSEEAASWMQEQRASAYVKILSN
SMILES,Primary Assay ICmax (SurA),Primary Assay Amplitude (SurA),Sensitizer MIC Assay (log2-fold reduction of MIC in presence of compound) JW2496-3 (E. coli JW2496-3),Sensitizer MIC Assay (log2-fold reduction of MIC in presence of compound) ATCC25922 (E. coli ATCC 25922),Sensitizer MIC Assay (log2-fold reduction of MIC in presence of compound) BW25113 (E. coli BW25113),Bacteriostatic MIC Assay Result [1]
"CCOC(=O)COc1ccc(Cc2nc(C(N)=O)c(NC(=O)c3ccc(-c4ccccc4)cc3)[nH]2)cc1 [Compound 1a, Ethyl 2-(4-((5-([1,1′-biphenyl]-4-carboxamido)-4-carbamoyl-1H-imidazol-2-yl)methyl)-phenoxy)acetate]",16 µM,high,0 log2-fold,0 log2-fold,0 log2-fold,non-bacteriostatic
"CCOC(=O)COc1ccc(Cc2nc(C(N)=O)c(NC(=O)c3cccc(-c4ccccc4)c3)[nH]2)cc1 [Compound 1b, Ethyl 2-(4-((5-([1,1′-biphenyl]-3-carboxamido)-4-carbamoyl-1H-imidazol-2-yl)methyl)phenoxy)acetate]",–,–,–,–,–,non-bacteriostatic
"NC(=O)c1nc(Cc2ccc(OCc3ccccc3)cc2)[nH]c1NC(=O)c1ccc(-c2ccccc2)cc1 [Compound 1d, 5-([1,1′-biphenyl]-4-carboxamido)-2-(4-(benzyloxy)benzyl)-1H-imidazole-4-carboxamide]",32 µM,low,0 log2-fold,0 log2-fold,0 log2-fold,non-bacteriostatic
"NC(=O)c1nc(Cc2ccccc2)[nH]c1NC(=O)c1ccc(-c2ccccc2)cc1 [Compound 1e, 5-([1,1′-biphenyl]-4-carboxamido)-2-benzyl-1H-imidazole-4-carboxamide]",16 µM,high,0 log2-fold,0 log2-fold,0 log2-fold,non-bacteriostatic
"COc1ccc(Cc2nc(C(N)=O)c(NC(=O)c3ccc(-c4ccccc4)cc3)[nH]2)cc1 [Compound 1f, 5-([1,1′-biphenyl]-4-carboxamido)-2-(4-methoxybenzyl)-1H-imidazole-4-carboxamide]",16 µM,high,–,–,–,slightly
"NC(=O)c1nc(Cc2ccc(OCC(=O)O)cc2)[nH]c1NC(=O)c1cccc(-c2ccccc2)c1 [Compound 2b, 2-(4-((5-([1,1′-biphenyl]-3-carboxamido)-4-carbamoyl-1H-imidazol-2-yl)methyl)phenoxy)acetic acid]",64 µM,low,0 log2-fold,0 log2-fold,0 log2-fold,non-bacteriostatic
"NC(=O)c1nc(Cc2ccc(OCC(=O)O)cc2)[nH]c1NC(=O)c1ccccc1-c1ccccc1 [Compound 2c, 2-(4-((5-([1,1′-biphenyl]-2-carboxamido)-4-carbamoyl-1H-imidazol-2-yl)methyl)phenoxy)acetic acid]",–,–,0 log2-fold,0 log2-fold,0 log2-fold,non-bacteriostatic
"NC(=O)c1nc(Cc2ccc(O)cc2)[nH]c1NC(=O)c1ccc(-c2ccccc2)cc1 [Compound 2d, 5-([1,1′-biphenyl]-4-carboxamido)-2-(4-hydroxybenzyl)-1H-imidazole-4-carboxamide]",16 µM,high,–,–,–,non-bacteriostatic
"NC(=O)c1nc(-c2cccc(N)c2)[nH]c1NC(=O)c1ccc(-c2ccccc2)cc1 [Compound 3b, 5-([1,1′-biphenyl]-4-carboxamido)-2-(3-aminophenyl)-1H-imidazole-4-carboxamide]",8 µM,high,1-3 log2-fold,1 log2-fold,1 log2-fold,non-bacteriostatic
"NC(=O)c1nc(-c2ccccc2O)[nH]c1NC(=O)c1ccc(-c2ccccc2)cc1 [Compound 3c, 5-([1,1′-biphenyl]-4-carboxamido)-2-(2-hydroxyphenyl)-1H-imidazole-4-carboxamide]",8 µM,high,1-2 log2-fold,1-2 log2-fold,0 log2-fold,non-bacteriostatic
"NC(=O)c1nc(-c2cccc(N)c2)[nH]c1NC(=O)Cc1cccc2ccccc12 [Compound 3i, 2-(3-aminophenyl)-5-(2-(naphthalen-1-yl)acetamido)-1H-imidazole-4-carboxamide]",–,–,–,–,–,non-bacteriostatic
"NC(=O)c1nc(-c2ccccc2O)[nH]c1NC(=O)Cc1cccc2ccccc12 [Compound 3j, 2-(2-hydroxyphenyl)-5-(2-(naphthalen-1-yl)acetamido)-1H-imidazole-4-carboxamide]",–,–,1-4 log2-fold,1 log2-fold,0 log2-fold,non-bacteriostatic
"NC(=O)c1nc(-c2ccc(F)c(N)c2)[nH]c1NC(=O)Cc1cccc2ccccc12 [Compound 3k, 2-(3-amino-4-fluorophenyl)-5-(2-(naphthalen-1-yl)acetamido)-1H-imidazole-4-carboxamide]",–,–,0 log2-fold,0 log2-fold,0 log2-fold,non-bacteriostatic
"NC(=O)c1nc(-c2cc(F)c(F)c(F)c2)[nH]c1NC(=O)c1ccccc1OCc1ccccc1 [Compound 3p, 5-(2-(benzyloxy)benzamido)-2-(3,4,5-trifluorophenyl)-1H-imidazole-4-carboxamide]",–,–,–,–,–,slightly
